“Also recorded” adds a separate entry of the source.
Key:
Assay type in all cases: in vivo
[1] = test system: carrageenan-induced paw edema in rats; test: Anti-inflammatory activity, carrageenan-induced paw edema test; details: for Percent anti-inflammatory activity (percent inhibition of paw edema): mean ± SD (n = 6); for Anti-inflammatory activity compared to reference standard diclofenac sodium (in words): carrageenan-induced paw edema in rats
Description: (§1) The synthesized compounds were evaluated for analgesic, anti-inflammatory, and ulcerogenic index. […] The test compounds and the standard drugs were administered in the form of a suspension (1% carboxymethyl cellulose as a vehicle) by oral route for analgesic and anti-inflammatory but for ulcerogenicity studies by intraperitoneally as suspension in 10% v/v Tween-20. Each group consisted of six animals. The animals were procured from the C. L. Baid Metha College of pharmacy, Chennai, and were maintained in colony cages at 25 ±2°C, relative humidity of 45-55%, under a 12-h light and dark cycle; they were fed standard animal feed. All the animals were acclimatized for a week before use. The Institutional Animal Ethics Committee approved the protocol adopted for the experimentation of animals.
Anti-inflammatory activity was evaluated by carrageenan-induced paw edema test in rats.[15] Diclofenac sodium 10, 20 mg/kg was administered as a standard drug for comparison. The test compounds were administered at two dose levels (10 mg/kg, 20 mg/kg). The paw volumes were measured using the mercury displacement technique with the help of a plethysmograph (Model PLYAN; Buxco, USA) immediately before and 30 min, 1, 2, and 3 h after carrageenan injection. The percent inhibition of paw edema was calculated using the following formula.
Percent inhibition I = 100 1− (a−x) / (b−y)
Where x is the mean paw volume of rats before the administration of carrageenan and test compounds or reference compound (test group), a is the mean paw volume of rats after the administration of carrageenan in the test group (drug treated), b is the mean paw volume of rats after the administration of carrageenan in the control group, y is the mean paw volume of rats before the administration of carrageenan in the control group.

[2] = test system: Albino rats of Wistar strain; test: Evaluation of ulcerogenicity index (pylorus ligation); design: scale not given here; details: test compounds 20 mg/kg intraperitoneally, pylorus ligated on fourth day, mean ± SD (n = 6)
Description: The synthesized compounds were evaluated for analgesic, anti-inflammatory, and ulcerogenic index. […] The test compounds and the standard drugs were administered in the form of a suspension (1% carboxymethyl cellulose as a vehicle) by oral route for analgesic and anti-inflammatory but for ulcerogenicity studies by intraperitoneally as suspension in 10% v/v Tween-20. Each group consisted of six animals. The animals were procured from the C. L. Baid Metha College of pharmacy, Chennai, and were maintained in colony cages at 25 ±2°C, relative humidity of 45-55%, under a 12-h light and dark cycle; they were fed standard animal feed. All the animals were acclimatized for a week before use. The Institutional Animal Ethics Committee approved the protocol adopted for the experimentation of animals. Ulceration in rats was induced as described by Goyal et al. Albino rats of Wistar strain weighing 150-200 g of either sex were divided into various groups each of six animals.[16] Control group of animals was administered only with 10% v/v Tween 80 suspension intraperitonially. One group was administered with aspirin (German Remedies) intraperitoneally at a dose of 200 mg/kg once daily for 3 days. The remaining group of animals was administered with test compounds intraperitoneally at a dose of 20 mg/kg. On fourth day, Pylorus was ligated as per the method of Shay et al.[17] Animals were fasted for 36 h before the pylorus ligation procedure. Four hours after the ligation, animals were sacrificed. The stomach was removed and opened along with the greater curvature. Ulcer index was determined by the method of Ganguly and Bhatnagar.[18]

Wistar albino mice = test: Analgesic activity, tail-flick technique; details: for Percent analgesic activity: mean ± SD (n = 6); for Analgesic activity (in words): tail-flick, structure-activity comparison within the series / vs diclofenac sodium
Description: as §1
The analgesic activity was performed by tail-flick technique using Wistar albino mice (25-35 g) of either sex selected by the random sampling technique.[1314] Diclofenac sodium at a dose level of 10 mg/kg and 20 mg/kg was administered orally as reference drug for comparison. The test compounds at two dose levels (10, 20 mg/kg) were administered orally. The reaction time was recorded at 30 min, 1, 2, and 3 h after the treatment, and cut-off time was 10 s. The percent analgesic activity (PAA) was calculated by the following formula, where T1 is the reaction time (s) before treatment, and T2 is the reaction time (s) after treatment.

[3] = 10 mg/kg oral, 30 min after carrageenan
[4] = 10 mg/kg oral, 1 h after carrageenan
[5] = 10 mg/kg oral, 2 h after carrageenan
[6] = 10 mg/kg oral, 3 h after carrageenan
[7] = 20 mg/kg oral, 30 min after carrageenan
[8] = 20 mg/kg oral, 1 h after carrageenan
[9] = 20 mg/kg oral, 2 h after carrageenan
[10] = 20 mg/kg oral, 3 h after carrageenan
[11] = 10 mg/kg oral, 30 min after treatment
[12] = 10 mg/kg oral, 1 h after treatment
[13] = 10 mg/kg oral, 2 h after treatment
[14] = 10 mg/kg oral, 3 h after treatment
[15] = 20 mg/kg oral, 30 min after treatment
[16] = 20 mg/kg oral, 1 h after treatment
[17] = 20 mg/kg oral, 2 h after treatment
[18] = 20 mg/kg oral, 3 h after treatment

SMILES: O=C1Nc2ccc(F)cc2C1=Nc1ccc(N=C2CCCCC2)cc1 [Compound N4]
- Percent anti-inflammatory activity (percent inhibition of paw edema) [1, 3]: 38 ± 1.82 %
- Percent anti-inflammatory activity (percent inhibition of paw edema) [1, 4]: 50 ± 1.24 %
- Percent anti-inflammatory activity (percent inhibition of paw edema) [1, 5]: 55 ± 1.15 %
- Percent anti-inflammatory activity (percent inhibition of paw edema) [1, 6]: 35 ± 1.76 %
- Percent anti-inflammatory activity (percent inhibition of paw edema) [1, 7]: 45 ± 1.36 %
- Percent anti-inflammatory activity (percent inhibition of paw edema) [1, 8]: 56 ± 1.83 %
- Percent anti-inflammatory activity (percent inhibition of paw edema) [1, 9]: 60 ± 1.19 %
- Percent anti-inflammatory activity (percent inhibition of paw edema) [1, 10]: 44 ± 1.65 %
- Ulcer index [2]: 0.89 ± 1.26
- Percent analgesic activity (Wistar albino mice; [11]): 48 ± 1.28 %
- Percent analgesic activity (Wistar albino mice; [12]): 52 ± 1.52 %
- Percent analgesic activity (Wistar albino mice; [13]): 54 ± 1.15 %
- Percent analgesic activity (Wistar albino mice; [14]): 35 ± 1.76 %
- Percent analgesic activity (Wistar albino mice; [15]): 55 ± 1.36 %
- Percent analgesic activity (Wistar albino mice; [16]): 57 ± 1.66 %
- Percent analgesic activity (Wistar albino mice; [17]): 59 ± 1.19 %
- Percent analgesic activity (Wistar albino mice; [18]): 44 ± 1.65 %
- Analgesic activity (in words) (Wistar albino mice): moderate decrease in activity

SMILES: O=C1Nc2ccc(F)cc2C1=Nc1ccc(N=Cc2ccc([N+](=O)[O-])cc2)cc1 [Compound N8]
- Percent anti-inflammatory activity (percent inhibition of paw edema) [1, 3]: 40 ± 1.65 %
- Percent anti-inflammatory activity (percent inhibition of paw edema) [1, 4]: 44 ± 1.53 %
- Percent anti-inflammatory activity (percent inhibition of paw edema) [1, 5]: 48 ± 1.74 %
- Percent anti-inflammatory activity (percent inhibition of paw edema) [1, 6]: 36 ± 1.36 %
- Percent anti-inflammatory activity (percent inhibition of paw edema) [1, 7]: 49 ± 1.46 %
- Percent anti-inflammatory activity (percent inhibition of paw edema) [1, 8]: 52 ± 1.92 %
- Percent anti-inflammatory activity (percent inhibition of paw edema) [1, 9]: 56 ± 1.16 %
- Percent anti-inflammatory activity (percent inhibition of paw edema) [1, 10]: 39 ± 1.48 %
- Anti-inflammatory activity compared to reference standard diclofenac sodium (in words) [1]: equipotent
- Ulcer index [2]: 0.92 ± 1.45
- Percent analgesic activity (Wistar albino mice; [11]): 39 ± 1.75 %
- Percent analgesic activity (Wistar albino mice; [12]): 46 ± 1.43 %
- Percent analgesic activity (Wistar albino mice; [13]): 48 ± 1.24 %
- Percent analgesic activity (Wistar albino mice; [14]): 36 ± 1.36 %
- Percent analgesic activity (Wistar albino mice; [15]): 48 ± 1.46 %
- Percent analgesic activity (Wistar albino mice; [16]): 51 ± 1.92 %
- Percent analgesic activity (Wistar albino mice; [17]): 54 ± 1.16 %
- Percent analgesic activity (Wistar albino mice; [18]): 39 ± 1.48 %
- Analgesic activity (in words) (Wistar albino mice): further decrease of activity

SMILES: O=C1Nc2ccc(F)cc2C1=Nc1ccc(N=Cc2ccccc2)cc1 [Compound N6]
- Percent anti-inflammatory activity (percent inhibition of paw edema) [1, 3]: 37 ± 1.67 %
- Percent anti-inflammatory activity (percent inhibition of paw edema) [1, 4]: 42 ± 1.42 %
- Percent anti-inflammatory activity (percent inhibition of paw edema) [1, 5]: 49 ± 1.58 %
- Percent anti-inflammatory activity (percent inhibition of paw edema) [1, 6]: 36 ± 1.96 %
- Percent anti-inflammatory activity (percent inhibition of paw edema) [1, 7]: 46 ± 1.48 %
- Percent anti-inflammatory activity (percent inhibition of paw edema) [1, 8]: 55 ± 1.76 %
- Percent anti-inflammatory activity (percent inhibition of paw edema) [1, 9]: 59 ± 1.93 %
- Percent anti-inflammatory activity (percent inhibition of paw edema) [1, 10]: 38 ± 1.47 %
- Ulcer index [2]: 0.84 ± 1.78
- Percent analgesic activity (Wistar albino mice; [11]): 37 ± 1.87 %
- Percent analgesic activity (Wistar albino mice; [12]): 46 ± 1.42 %
- Percent analgesic activity (Wistar albino mice; [13]): 49 ± 1.15 %
- Percent analgesic activity (Wistar albino mice; [14]): 36 ± 1.96 %
- Percent analgesic activity (Wistar albino mice; [15]): 49 ± 1.83 %
- Percent analgesic activity (Wistar albino mice; [16]): 54 ± 1.76 %
- Percent analgesic activity (Wistar albino mice; [17]): 59 ± 1.18 %
- Percent analgesic activity (Wistar albino mice; [18]): 43 ± 1.47 %
- Analgesic activity (in words) (Wistar albino mice): decreasing activity

SMILES: COc1ccc(C=Nc2ccc(N=C3C(=O)Nc4ccc(F)cc43)cc2)cc1 [Compound N7]
- Percent anti-inflammatory activity (percent inhibition of paw edema) [1, 3]: 36 ± 1.74 %
- Percent anti-inflammatory activity (percent inhibition of paw edema) [1, 4]: 42 ± 1.72 %
- Percent anti-inflammatory activity (percent inhibition of paw edema) [1, 5]: 45 ± 1.55 %
- Percent anti-inflammatory activity (percent inhibition of paw edema) [1, 6]: 33 ± 1.69 %
- Percent anti-inflammatory activity (percent inhibition of paw edema) [1, 7]: 44 ± 1.76 %
- Percent anti-inflammatory activity (percent inhibition of paw edema) [1, 8]: 55 ± 1.78 %
- Percent anti-inflammatory activity (percent inhibition of paw edema) [1, 9]: 58 ± 1.66 %
- Percent anti-inflammatory activity (percent inhibition of paw edema) [1, 10]: 41 ± 1.48 %
- Ulcer index [2]: 0.78 ± 1.19
- Percent analgesic activity (Wistar albino mice; [11]): 34 ± 1.74 %
- Percent analgesic activity (Wistar albino mice; [12]): 43 ± 1.72 %
- Percent analgesic activity (Wistar albino mice; [13]): 45 ± 1.45 %
- Percent analgesic activity (Wistar albino mice; [14]): 29 ± 1.69 %
- Percent analgesic activity (Wistar albino mice; [15]): 47 ± 1.96 %
- Percent analgesic activity (Wistar albino mice; [16]): 52 ± 1.67 %
- Percent analgesic activity (Wistar albino mice; [17]): 56 ± 1.36 %
- Percent analgesic activity (Wistar albino mice; [18]): 44 ± 1.48 %
- Analgesic activity (in words) (Wistar albino mice): decreasing activity; also recorded: further decrease of activity

SMILES: CCC(CC)=Nc1ccc(N=C2C(=O)Nc3ccc(F)cc32)cc1 [Compound N2]
- Percent anti-inflammatory activity (percent inhibition of paw edema) [1, 3]: 42 ± 1.25 %
- Percent anti-inflammatory activity (percent inhibition of paw edema) [1, 4]: 50 ± 1.38 %
- Percent anti-inflammatory activity (percent inhibition of paw edema) [1, 5]: 53 ± 1.15 %
- Percent anti-inflammatory activity (percent inhibition of paw edema) [1, 6]: 45 ± 1.68 %
- Percent anti-inflammatory activity (percent inhibition of paw edema) [1, 7]: 51 ± 1.44 %
- Percent anti-inflammatory activity (percent inhibition of paw edema) [1, 8]: 57 ± 1.72 %
- Percent anti-inflammatory activity (percent inhibition of paw edema) [1, 9]: 62 ± 1.26 %
- Percent anti-inflammatory activity (percent inhibition of paw edema) [1, 10]: 54 ± 1.67 %
- Anti-inflammatory activity compared to reference standard diclofenac sodium (in words) [1]: equipotent
- Ulcer index [2]: 0.97 ± 1.53
- Percent analgesic activity (Wistar albino mice; [11]): 50 ± 1.25 %
- Percent analgesic activity (Wistar albino mice; [12]): 56 ± 1.32 %
- Percent analgesic activity (Wistar albino mice; [13]): 60 ± 1.15 %
- Percent analgesic activity (Wistar albino mice; [14]): 45 ± 1.68 %
- Percent analgesic activity (Wistar albino mice; [15]): 57 ± 1.44 %
- Percent analgesic activity (Wistar albino mice; [16]): 60 ± 1.90 %
- Percent analgesic activity (Wistar albino mice; [17]): 64 ± 1.26 %
- Percent analgesic activity (Wistar albino mice; [18]): 50 ± 1.67 %
